Test results published in patent publication US12605353B2, “PDIA4 inhibitors and use thereof for inhibiting β-cell pathogenesis and treating diabetes” (Academia Sinica, priority 2019, dated 2026).

Molecular target: T1, PDIA4 (Homo sapiens, UniProt P13667)
T1 sequence (P13667 21-645): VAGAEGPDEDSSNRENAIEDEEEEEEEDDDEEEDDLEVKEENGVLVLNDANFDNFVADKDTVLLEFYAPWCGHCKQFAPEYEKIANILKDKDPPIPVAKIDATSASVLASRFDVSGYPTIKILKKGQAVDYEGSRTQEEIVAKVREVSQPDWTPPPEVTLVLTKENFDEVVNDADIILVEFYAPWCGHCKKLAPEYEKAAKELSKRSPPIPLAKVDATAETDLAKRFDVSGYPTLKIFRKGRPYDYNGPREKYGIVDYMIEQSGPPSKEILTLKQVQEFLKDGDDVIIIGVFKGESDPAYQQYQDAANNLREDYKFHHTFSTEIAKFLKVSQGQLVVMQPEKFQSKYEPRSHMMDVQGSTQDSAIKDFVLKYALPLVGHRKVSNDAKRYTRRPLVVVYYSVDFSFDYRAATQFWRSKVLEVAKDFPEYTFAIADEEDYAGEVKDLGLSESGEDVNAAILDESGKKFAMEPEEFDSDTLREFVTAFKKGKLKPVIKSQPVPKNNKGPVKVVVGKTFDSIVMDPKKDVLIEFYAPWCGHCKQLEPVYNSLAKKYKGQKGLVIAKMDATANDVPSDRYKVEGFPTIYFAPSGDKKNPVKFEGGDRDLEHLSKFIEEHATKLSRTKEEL
Test: biochemical
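Note: enzymatic activity of PDIA4 read as absorbance at 595 nm, inhibition given as percent decrease relative to vehicle-treated control.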

Description: Recombinant PDI proteins PDIA4 (23 pM) was incubated with insulin (0.2 mM) and DTT (0.1 mM) in the presence of vehicle and compounds at the indicated doses for 30 min at 25° C. The mixture was, measured using a SpectraMax i3x reader at 595 nm based on the manufacturer's instructions (Molecular device, CA, USA). Inhibition of the enzymatic activity PDIA4 is calculated by the formula, 100%×(OD595 of vehicle−OD595 of CP)/(OD595 of vehicle) as published previously.

C#CC(=O)Nc1cc(OC)c(OCCCN(C(=O)C#C)C(=O)c2ccccc2F)cc1C(=O)OC [58b, methyl 5-(3-(2-fluoro-N-propioloylbenzamido)propoxy)-4-methoxy-propiolamidobenzoate]
IC50: 4.2 µM

CC#CC#C/C=C1\C=CC2(OC=CC2OC(=O)C=C(C)C)O1 (stereo not shown) [C6, (E)-7-(hexa-2,4-diyn-1-ylidene)-1,6-dioxaspiro[4,4]nona-2,8-dien-4-yl 3-methylbut-2-enoate]
IC50: 753 µM

C#CC(=O)Nc1cc(OC)c(OCCCN(C(=O)C#C)C(=O)Cc2ccc(F)cc2)cc1C(=O)OC [58l]
IC50: 1.4 µM

OCC#CC(O)c1ccccc1 (stereo not shown) [C7, 1-phenylbut-2-yne-1,4-diol]
IC50: > 1000 µM

C#CC(=O)Nc1ccc(CC(=O)O)cc1 [C12, 2-(4-propiolamidophenyl)acetic acid]
IC50: 92.1 µM

CCCOc1cc(C(=O)O)c(N)cc1OC [compound 44, 2-amino-4-methoxy-5-propoxybenzoic acid]
IC50: > 1000 µM

C#CC(=O)Nc1ccc(O)c(C(=O)O)c1 [C14, 2-hydroxy-5-propiolamidobenzoic acid]
IC50: 55.7 µM

CC#CCNc1ccc(NC(C)=O)cc1 [C8, N-(4-(but-2-yn-1-ylamino)phenyl)acetamide]
IC50: > 1000 µM

C#CC(=O)Nc1cc(OC)c(OCCCN(C(=O)C#C)C(=O)c2ccccc2)cc1C(=O)O [compound 40, 4-methoxy-2-propiolamido-5-(3-(N-propioloylbenzamido)propoxy)benzoic acid]
IC50: 3.9 µM

C#CC(=O)Nc1cc(OC)c(OCCCNC(=O)OC(C)(C)C)cc1C(=O)OC [compound 61, Methyl 5-(3-((tert-butoxycarbonyl)amino)propoxy)-4-methoxy-2-propiolamidobenzoate]
IC50: 4.7 µM

C#CC(=O)N(c1ccc(OC)cc1OC)C(C(=O)NCC(=O)OCC)c1cccs1 (stereo not shown) [C5, ethyl (2-(N-(2,4-dimethoxyphenyl)propiolamido)-2-(thiophen-2-yl)acetyl)glycinate]
IC50: 760 µM

CC#CC#C/C=C1/C=CC(=O)O1 [C2, (Z)-5-(hexa-2,4-diyn-1-ylidene)furan-2(5H)-one]
IC50: 96.5 µM

C#CC(=O)Nc1cc(OC)c(OCCC)cc1C(=O)OCCC [compound 43, propyl 4-methoxy-2-propiolamido-5-propoxybenzoate]
IC50: 431 µM

C#CC(=O)Nc1cc(OC)c(OCCCN(C(=O)C#C)C(=O)Cc2cccc(Cl)c2)cc1C(=O)OC [58r, methyl 5-(3-(N-(2-(3-chlorophenyl)acetyl)propiolamido)propoxy)-4-methoxy-2-propiolamidobenzoate]
IC50: 1.6 µM

COc1cc(N)c(C(=O)O)cc1OC [compound 9, 2-amino-4,5-dimethoxybenzoic acid]
IC50: > 1000 µM

C#CC(=O)Nc1cc(OC)c(OCCCN(C(=O)C#C)C(=O)Cc2ccccc2)cc1C(=O)OC [58i, methyl 4-methoxy-5-(3-(N-(2-phenylacetyl)propiolamido)propoxy)-2-propiolamidobenzoate]
IC50: 1.9 µM

COC(=O)c1cc(OC)c(OC)cc1N [compound 3, methyl 2-amino-4,5-dimethoxybenzoate]
IC50: > 1000 µM

C#CC(=O)OC(=O)c1cc(OC)c(OC)c(OC)c1N [compound 22, 2-amino-3,4,5-trimethoxybenzoic propiolic anhydride]
IC50: 4.3 µM

COC(=O)c1cc(OCCCN)c(OC)cc1[N+](=O)[O-] [compound 55, methyl 5-(3-aminopropoxy)-4-methoxy-2-nitrobenzoate]
IC50: > 1000 µM

CC#CC#CC#CC#CCCC(O)CO (stereo not shown) [CPD P2, cytopiloyne aglycone, reference compound]
IC50: 168 µM

C#CC(=O)Nc1cc(OC)c(OCCCN(C(=O)C#C)C(=O)Cc2ccc(OC)cc2)cc1C(=O)OC [58o, methyl 4-methoxy-5-(3-(N-(2-(4-methoxyphenyl)acetyl)propiolamido)propoxy)-2-propiolamidobenzoate]
IC50: 2.1 µM

COC(=O)c1cc(OC)c(OC)c(OC)c1N [compound 19, methyl 2-amino-3,4,5-trimethoxybenzoate]
IC50: > 1000 µM
